From US8841321B2, “Quinoline derivatives as antibacterial agents” (Janssen Pharmaceutica NV, priority 2005, dated 2014)
Values after ≈ are worked out from the molar mass of the structure shown.

Columns and labels:
[1] = system: STA 29213 (Staphylococcus aureus (ATCC29213)); assay: Microtitre plate assay, IC90 determination; type: cell-based; conditions: Staphylococcus aureus (ATCC29213)
Description: (§1) The bacteria used in this study were grown overnight in flasks containing 100 ml Mueller-Hinton Broth (Becton Dickinson—cat. no. 275730) in sterile de-ionized water, with shaking, at 37° C. Stocks (0.5 ml/tube) were stored at −70° C. until use. Bacteria titrations were performed in microtiter plates and colony forming units (CFUs) were determined. In general, an inoculum level of approximately 100 CFUs was used for susceptibility testing.
(§2) Flat-bottom, sterile 96-well plastic microtiter plates were filled with 180 μl of sterile deionized water, supplemented with 0.25% BSA. Subsequently, stock solutions (7.8× final test concentration) of compounds were added in 45 μl volumes in column 2. Serial five-fold dilutions (45 μl in 180 μl) were made directly in the microtiter plates from column 2 to reach column 11. Untreated control samples with (column 1) and without (column 12) inoculum were included in each microtiter plate. Depending on the bacteria type, approximately 10 to 60 CFU per well of bacteria inoculum (100 TCID50), in a volume of 100 μl in 2.8× Mueller-Hinton broth medium, was added to the rows A to H, except column 12. The same volume of broth medium without inoculum was added to column 12 in row A to H. The cultures were incubated at 37° C. for 24 hours under a normal atmosphere (incubator with open air valve and continuous ventilation). At the end of incubation, one day after inoculation, the bacterial growth was quantitated fluorometrically. Therefore resazurin (0.6 mg/ml) was added in a volume of 20 μl to all wells 3 hours after inoculation, and the plates were re-incubated overnight. A change in colour from blue to pink indicated the growth of bacteria. The fluorescence was read in a computer-controlled fluorometer (Cytofluor Biosearch) at an excitation wavelength of 530 nm and an emission wavelength of 590 nm. The % growth inhibition achieved by the compounds was calculated according to standard methods. The IC90 (expressed in μg/ml) was defined as the 90% inhibitory concentration for bacterial growth.

[2] = system: SPN 6305 (Streptococcus pneumoniae (ATCC6305)); assay: Microtitre plate assay, IC90 determination; type: cell-based; conditions: Streptococcus pneumoniae (ATCC6305)
Description: as §1, §2

## COc1nc2ccc(Br)cc2cc1C(c1ccccc1)C(O)(CCCCN(C)C(C)C)c1ccccc1 (single isomer, unassigned) [Compound 88]
[1]
  IC90 (μg/ml) STA 29213: 11.2 µg/mL (≈ 19.9 µM)
[2]
  IC90 (μg/ml) SPN 6305: 6.3 µg/mL (≈ 11.2 µM)

## COc1nc2ccc(Br)cc2cc1C(c1ccccc1)C(O)(CCCCN(C)C(C)C)c1ccccc1 (single isomer, unassigned) [Compound 90]
[1]
  IC90 (μg/ml) STA 29213: 2.24 µg/mL (≈ 3.99 µM)
[2]
  IC90 (μg/ml) SPN 6305: 2.51 µg/mL (≈ 4.47 µM)

## COc1nc2ccc(Br)cc2cc1C(c1ccccc1)C(O)(CCCCN1CCCCC1)c1ccccc1 (single isomer, unassigned) [Compound 98]
[1]
  IC90 (μg/ml) STA 29213: 1.81 µg/mL (≈ 3.16 µM)
[2]
  IC90 (μg/ml) SPN 6305: 2.04 µg/mL (≈ 3.56 µM)

## COc1nc2ccc(Br)cc2cc1C(c1ccccc1)C(O)(CCCCN1CCCCC1)c1ccccc1 (single isomer, unassigned) [Compound 99]
[1]
  IC90 (μg/ml) STA 29213: 1.81 µg/mL (≈ 3.16 µM)
[2]
  IC90 (μg/ml) SPN 6305: 2.04 µg/mL (≈ 3.56 µM)

## COc1nc2ccc(Br)cc2cc1C(c1ccccc1)C(O)(CCCCN1CCCCC1)c1ccccc1 (single isomer, unassigned) [Compound 100]
[1]
  IC90 (μg/ml) STA 29213: 9.09 µg/mL (≈ 15.8 µM)
[2]
  IC90 (μg/ml) SPN 6305: 11.44 µg/mL (≈ 19.9 µM)

## COc1nc2ccc(Br)cc2cc1C(c1ccccc1)C(O)(CCCCN1CCCCC1)c1ccccc1 (single isomer, unassigned) [Compound 101]
[1]
  IC90 (μg/ml) STA 29213: 9.09 µg/mL (≈ 15.8 µM)
[2]
  IC90 (μg/ml) SPN 6305: 9.09 µg/mL (≈ 15.8 µM)

## COc1nc2ccc(Br)cc2cc1C(c1ccccc1)C(O)(CCCCN1CCN(C)CC1)c1ccccc1 (single isomer, unassigned) [Compound 108]
[1]
  IC90 (μg/ml) STA 29213: 8.31 µg/mL (≈ 14.1 µM)
[2]
  IC90 (μg/ml) SPN 6305: 2.34 µg/mL (≈ 3.98 µM)

## COc1nc2ccc(Br)cc2cc1C(c1ccccc1)C(O)(CCCCN1CCN(C)CC1)c1ccccc1 (single isomer, unassigned) [Compound 109]
[1]
  IC90 (μg/ml) STA 29213: 9.33 µg/mL (≈ 15.9 µM)
[2]
  IC90 (μg/ml) SPN 6305: 5.25 µg/mL (≈ 8.92 µM)

## COc1nc2ccc(Br)cc2cc1C(c1ccccc1)C(O)(CCCCN1CCN(C)CC1)c1ccccc1 (single isomer, unassigned) [Compound 110]
[1]
  IC90 (μg/ml) STA 29213: 9.33 µg/mL (≈ 15.9 µM)
[2]
  IC90 (μg/ml) SPN 6305: 4.68 µg/mL (≈ 7.95 µM)

## COc1nc2ccc(Br)cc2cc1C(c1ccccc1)C(O)(CCCCN1CCN(C)CC1)c1ccccc1 (single isomer, unassigned) [Compound 111]
[1]
  IC90 (μg/ml) STA 29213: 9.33 µg/mL (≈ 15.9 µM)
[2]
  IC90 (μg/ml) SPN 6305: 2.09 µg/mL (≈ 3.55 µM)

## COc1nc2ccc(Br)cc2cc1C(c1ccccc1)C(O)(CCCCN1CCN(C)CC1)c1ccc2ccccc2c1 (single isomer, unassigned) [Compound 113]
[1]
  IC90 (μg/ml) STA 29213: 14.3 µg/mL (≈ 22.4 µM)
[2]
  IC90 (μg/ml) SPN 6305: 2.54 µg/mL (≈ 3.98 µM)

## COc1nc2ccc(Br)cc2cc1C(c1ccccc1)C(O)(CCCCN1CCOCC1)c1ccccc1 (single isomer, unassigned) [Compound 116]
[1]
  IC90 (μg/ml) STA 29213: 5.76 µg/mL (≈ 10 µM)
[2]
  IC90 (μg/ml) SPN 6305: 2.04 µg/mL (≈ 3.54 µM)

## COc1nc2ccc(Br)cc2cc1C(c1ccccc1)C(O)(CCCCN1CCCCC1)CCC(C)C (single isomer, unassigned) [Compound 123]
[1]
  IC90 (μg/ml) STA 29213: 2.26 µg/mL (≈ 3.98 µM)
[2]
  IC90 (μg/ml) SPN 6305: 1.79 µg/mL (≈ 3.15 µM)

## COc1nc2ccc(Br)cc2cc1C(c1ccccc1)C(O)(CCCCN1CCN(C)CC1)CCC1CCCCC1 (single isomer, unassigned) [Compound 125]
[1]
  IC90 (μg/ml) STA 29213: 9.87 µg/mL (≈ 15.9 µM)
[2]
  IC90 (μg/ml) SPN 6305: 4.95 µg/mL (≈ 7.95 µM)

## COc1nc2ccc(Br)cc2cc1C(c1ccccc1)C(O)(CCCCN(C)C)Cc1ccccc1 (single isomer, unassigned) [Compound 127]
[1]
  IC90 (μg/ml) STA 29213: 1.73 µg/mL (≈ 3.16 µM)
[2]
  IC90 (μg/ml) SPN 6305: 1.73 µg/mL (≈ 3.16 µM)

## COc1nc2ccc(Br)cc2cc1C(c1ccccc1)C(O)(CCCCN(C)C)CCc1ccco1 (single isomer, unassigned) [Compound 129]
[1]
  IC90 (μg/ml) STA 29213: 6.19 µg/mL (≈ 11.2 µM)
[2]
  IC90 (μg/ml) SPN 6305: 1.74 µg/mL (≈ 3.15 µM)

## COc1nc2ccc(Br)cc2cc1C(c1ccccc1)C(O)(CCCCN(C)C)CCc1ccco1 (single isomer, unassigned) [Compound 130]
[1]
  IC90 (μg/ml) STA 29213: 8.74 µg/mL (≈ 15.8 µM)
[2]
  IC90 (μg/ml) SPN 6305: 6.19 µg/mL (≈ 11.2 µM)

## COc1nc2ccc(Br)cc2cc1C(c1ccccc1)C(O)(CCCCN1CCN(C)CC1)CCc1cccc2ccccc12 (single isomer, unassigned) [Compound 143]
[1]
  IC90 (μg/ml) STA 29213: 10.57 µg/mL (≈ 15.9 µM)
[2]
  IC90 (μg/ml) SPN 6305: 10.57 µg/mL (≈ 15.9 µM)

## COc1nc2ccc(Br)cc2cc1C(c1ccccc1)C(O)(CCCCN1CCCCC1)CCCc1ccccc1 (single isomer, unassigned) [Compound 146]
[1]
  IC90 (μg/ml) STA 29213: 9.76 µg/mL (≈ 15.9 µM)
[2]
  IC90 (μg/ml) SPN 6305: 5.49 µg/mL (≈ 8.92 µM)

## COc1nc2ccc(Br)cc2cc1C(c1ccccc1)C(O)(CCCCc1ccccc1)CCCCN(C)C (single isomer, unassigned) [Compound 147]
[1]
  IC90 (μg/ml) STA 29213: 9.34 µg/mL (≈ 15.8 µM)
[2]
  IC90 (μg/ml) SPN 6305: 9.34 µg/mL (≈ 15.8 µM)

## COc1nc2ccc(Br)cc2cc1C(c1ccccc1)C(O)(CCCCc1ccccc1)CCCCN1CCCCC1 (single isomer, unassigned) [Compound 148]
[1]
  IC90 (μg/ml) STA 29213: 1.99 µg/mL (≈ 3.16 µM)
[2]
  IC90 (μg/ml) SPN 6305: 2.23 µg/mL (≈ 3.54 µM)

## COc1nc2ccc(Br)cc2cc1C(c1ccccc1)C(O)(CCCCc1ccccc1)CCCCN1CCCCC1 (single isomer, unassigned) [Compound 149]
[1]
  IC90 (μg/ml) STA 29213: 1.99 µg/mL (≈ 3.16 µM)
[2]
  IC90 (μg/ml) SPN 6305: 2.23 µg/mL (≈ 3.54 µM)

## CNCCCCCC(O)(c1ccccc1)C(c1ccccc1)c1cc2cc(C)ccc2nc1OC (single isomer, unassigned) [Compound 151]
[1]
  IC90 (μg/ml) STA 29213: 1.7 µg/mL (≈ 3.63 µM)
[2]
  IC90 (μg/ml) SPN 6305: 2.12 µg/mL (≈ 4.52 µM)

## COc1nc2ccc(C)cc2cc1C(c1ccccc1)C(O)(CCCCCN(C)C)c1ccccc1 (single isomer, unassigned) [Compound 153]
[1]
  IC90 (μg/ml) STA 29213: 3.8 µg/mL (≈ 7.87 µM)
[2]
  IC90 (μg/ml) SPN 6305: 7.65 µg/mL (≈ 15.8 µM)

## COc1nc2ccc(Br)cc2cc1C(c1ccccc1)C(O)(CCCCCN(C)C)c1ccccc1 (single isomer, unassigned) [Compound 155]
[1]
  IC90 (μg/ml) STA 29213: 1.7 µg/mL (≈ 3.1 µM)
[2]
  IC90 (μg/ml) SPN 6305: 1.7 µg/mL (≈ 3.1 µM)

## COc1ccc(C(c2cc3cc(Br)ccc3nc2OC)C(O)(CCCCN(C)C)c2ccc3ccccc3c2)cc1 (single isomer, unassigned) [Compound 157]
[1]
  IC90 (μg/ml) STA 29213: 2.44 µg/mL (≈ 3.98 µM)
[2]
  IC90 (μg/ml) SPN 6305: 2.74 µg/mL (≈ 4.47 µM)

## COc1nc2ccccc2cc1C(c1cccc(Br)c1)C(O)(CCCCN(C)C)c1ccc2ccccc2c1 (single isomer, unassigned) [Compound 160]
[1]
  IC90 (μg/ml) STA 29213: 1.85 µg/mL (≈ 3.17 µM)
[2]
  IC90 (μg/ml) SPN 6305: 2.07 µg/mL (≈ 3.55 µM)

## COc1nc2ccccc2cc1C(c1cccc(Br)c1)C(O)(CCCCN(C)C)c1ccc2ccccc2c1 (single isomer, unassigned) [Compound 161]
[1]
  IC90 (μg/ml) STA 29213: 1.85 µg/mL (≈ 3.17 µM)
[2]
  IC90 (μg/ml) SPN 6305: 2.07 µg/mL (≈ 3.55 µM)

## COc1nc2ccccc2cc1C(c1cccc(Br)c1)C(O)(CCCCN(C)C)c1ccc2ccccc2c1 (single isomer, unassigned) [Compound 162]
[1]
  IC90 (μg/ml) STA 29213: 1.85 µg/mL (≈ 3.17 µM)
[2]
  IC90 (μg/ml) SPN 6305: 2.07 µg/mL (≈ 3.55 µM)

## COc1nc2ccc(Br)cc2cc1C(c1cccc(Cl)c1)C(O)(CCCCN(C)C)c1ccc2ccccc2c1 (single isomer, unassigned) [Compound 163]
[1]
  IC90 (μg/ml) STA 29213: 1 µg/mL (≈ 1.62 µM)
[2]
  IC90 (μg/ml) SPN 6305: 0.31 µg/mL (≈ 0.502 µM)

## COc1nc2ccc(Br)cc2cc1C(c1ccc(Cl)cc1)C(O)(CCCCN(C)C)c1ccc2ccccc2c1 (single isomer, unassigned) [Compound 164]
[1]
  IC90 (μg/ml) STA 29213: 1.4 µg/mL (≈ 2.27 µM)
[2]
  IC90 (μg/ml) SPN 6305: 0.31 µg/mL (≈ 0.502 µM)
